pIC50: −log10 of the molar value.

As usually defined, the pIC50 is the negative decadic logarithm of the IC50, by convention in mol/L.

The test system of one data set is JH-2-002 cells. As to the kind of experiment: IncuCyte live cell proliferation assay (percent cell confluence).
Data set [1] can be described thus: Mouse body weight and health in the MPNST tumor models. To be noted: in vivo. Further details: species or system mice. As to the method: . […] Mouse body weight, an indicator of health, was measured 2-3 times per week.
Data set [2] has as its system JW23.3 MPNST xenograft tumors. As to the kind of experiment: MPNST tumor growth in immunocompetent C57BL6 mice. The note with it: JW23.3 in immunocompetent mice; daily oral gavage; 1.5 mg/kg deucravacitinib, 30 mg/kg mirdametinib (FIG. 10 legend).
A further data set deals with WU-386 cells. As to the kind of experiment: IncuCyte live cell proliferation assay (percent cell confluence). Type of data set: cell-based, human. The note with it: 3 days.
Data set [3] deals with JW23.3, JH-2-002, WU-356 and WU-386 cells. As to the kind of experiment: IncuCyte cell confluence IC50 across the MPNST cell line panel. It is filed as cell-based, murine and human. To be noted: 72 h, 3 days, read-out: IC50 for inhibition of cell confluence, range over cell lines.
Method: (§2) MPNST cell lines were plated at 2500 cells/well in 96 well plates in growth media and incubated overnight. […] Cells were imaged every 1-2 hours by IncuCyte Zoom Live-Cell Analysis System (Essen Bioscience, Sartorius, Ann Arbor, MI). Cell proliferation was determined as percent confluence from phase images and was analyzed by IncuCyte image analysis software (Sartorius). […] IC50 values were calculated in GraphPad Prism version 9 (GraphPad Software, San Diego, CA).
A further data set concerns WU-386 MPNST xenograft. Description: MPNST xenograft tumor growth in NRG mice. The note with it: WU-386 in NRG mice; daily oral gavage; single agents.
The next data set relates to WU-356 cells. Description: IncuCyte live cell proliferation assay (percent cell confluence). Type of data set: cell-based, human. To be noted: 3 days.
A further data set relates to JAK1-3. The note with it: at clinically relevant doses; cited from earlier work.
Data set [4] relates to JW23.3 cells. As to the kind of experiment: IncuCyte live cell proliferation assay (percent cell confluence). It is filed as cell-based, murine.
Method: (§3) To gain further insight into the role of TYK2 in MPNST, the effect of pharmacologic inhibition of TYK2 was examined using IncuCyte Live Cell Imaging experiments for proliferation and cell death assay with YOYO-1 green fluorescent dye.
(§4) MPNST cell lines were plated at 2500 cells/well in 96 well plates in growth media and incubated overnight. […] Cells were imaged every 1-2 hours by IncuCyte Zoom Live-Cell Analysis System (Essen Bioscience, Sartorius, Ann Arbor, MI). Cell proliferation was determined as percent confluence from phase images and was analyzed by IncuCyte image analysis software (Sartorius). For cell death assays, 50 nmol/L YOYO-1 green fluorescent dye (Thermo Fisher) was added to treatment medium, and apoptosis was calculated as green objects normalized to the confluency factor and the initial timepoint. IC50 values were calculated in GraphPad Prism version 9 (GraphPad Software, San Diego, CA).
The test system of data set [5] is 2-009 cells. As to the kind of experiment: IncuCyte live cell imaging assay (cell confluence). Type of data set: cell-based. To be noted: over 3 days. The method, then:
(§1) Cell confluence and apoptosis were analyzed by IncuCyte live cell imaging assays. Drug combination synergy was calculated using Synergy Finder software.

In data set [6] the test system is 2-009 cells. Description: IncuCyte assay with YOYO-1 green fluorescence (apoptosis). Type of data set: cell-based. To be noted: over 3 days. As to the method:
as §1

The test system of data set [7] is JW23.3 cells. Description: IncuCyte cell death assay with YOYO-1 green fluorescent dye (apoptosis). The note with it: 72 hours.
Method: as §3, §4

Method for JH-2-002 cells: as §3, §4
Method for WU-356 cells: as §3, §2

Turning to `O=C(NOC[C@H](O)CO)c1ccc(F)c(F)c1Nc1ccc(I)cc1F` [mirdametinib], the pIC50 in the data set with JH-2-002 cells (Homo sapiens, 72 h, read-out: IC50 for inhibition of cell confluence) is 6.66; with WU-386 cells (Homo sapiens, 72 h, WU-386 MPNST cell line, IncuCyte, read-out: IC50 for inhibition of cell confluence), 5.97; in data set [3], 5.88 to 6.66; in the data set on WU-356 cells (Homo sapiens, 72 h, WU-356 MPNST cell line, IncuCyte, read-out: IC50 for inhibition of cell confluence), 5.88. Also, in data set [1], the “mouse body weight / adverse health effects” value is “did not significantly decrease mouse body weight”. Further, the “tumor volume relative to vehicle control” value in data set [2] was “nearly half the volume of vehicle control”. Also, in the data set on WU-386 MPNST xenograft, the tumor size result is reported as “non-significant trend toward decreased tumor size”.
Consider `[2H]C([2H])([2H])NC(=O)c1nnc(NC(=O)C2CC2)cc1Nc1cccc(-c2ncn(C)n2)c1OC` [deucravacitinib], for which the “block of JAK1-3” value with JAK1-3 is recorded as “does not block JAK1-3 at clinically relevant doses”. Also, the “percent cell confluence / proliferation” value in the data set with JH-2-002 cells (JH-2-002 cells, 72 hours) was “inhibited proliferation”. Moreover, in data set [2], the “tumor volume relative to vehicle control” value is on record as “nearly half the volume of vehicle control”. In addition, the “proliferation (cell confluence)” value in the data set on WU-386 cells (WU-386 cells) and in the data set with WU-356 cells (WU-356 cells) was “inhibited proliferation” throughout. Also, the pIC50 in the data set with JW23.3 cells [4] (Mus musculus, 72 h, read-out: IC50 for inhibition of cell confluence) is 5.17. Moreover, the tumor size entry with WU-386 MPNST xenograft is “non-significant trend toward decreased tumor size”.
For the compound `N#Cc1cc(F)c(C(=O)Nc2ccnc(NC(=O)C3C[C@H]3F)c2)c(Cl)c1` (stereo partly drawn) [TC-JL-37], the cell confluence result in the data set with 2-009 cells [5] was “decreased cell confluence”. For the same compound, the apoptosis entry in the data set with 2-009 cells [6] and in the data set on JW23.3 cells [7] was “increased apoptosis” in each case. The percent cell confluence result in the data set on JW23.3 cells [4] (JW23.3 cells, 72 hours) is reported as “decreased cell confluence”.
